The values below come from ChEMBL document CHEMBL1201862, “PubChem BioAssay data set” (2004).

One assay relates to Escherichia coli. In words: microbe, parasite or virus in culture.
Assay [1] deals with Induced myeloid leukemia cell differentiation protein Mcl-1 (Homo sapiens, UniProt Q07820). In kind it is functional.
For assay [2], the target named is T1, SUMO-activating enzyme (Homo sapiens, UniProt Q9UBT2). The assay can be described thus: inhibitors of in vitro SUMOylation cascade, primary screen, biochemical, HTRF, uHTS (AID 2006). In kind it is protein-complex assay.
The target in assay [3] is Ras and Rab interactor 1/Tyrosine-protein kinase ABL1 (Homo sapiens, UniProt P00519+Q13671). In kind it is functional.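 Also: biochemical TR-FRET dose-response test measuring inhibition of binding between Rin1 and Abl proteins.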
Assay [4] deals with Dual specificity tyrosine-phosphorylation-regulated kinase 1A (Rattus norvegicus, UniProt Q63470). In kind it is biochemical, Homo sapiens.
In a further assay the target is Large T antigen (Simian virus 40, UniProt P03070). In kind it is functional, Betapolyomavirus macacae.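 Also: Confirmatory-stage PubChem screen for compounds that inhibit SV40 T antigen.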
In assay [5] the target is Cyclin-dependent kinase 5/CDK5 activator 1 (Homo sapiens, UniProt Q00535). In words: CDK5/p35 kinase inhibitors, dose response, biochemical, cherry-picked samples, set 2 (AID 504545).
Assay [6] addresses T1, SUMO-activating enzyme. In words: SUMOylation inhibitor hit validation, confirmation, SUMOylation inhibitor project, biochemical, AlphaScreen (AID 2018). In kind it is functional.
A further assay concerns INS1. In words: inhibitors of cytokine-induced nitrite release, dose response, cell-based, Griess absorbance, INS-1E, dry powder (AID 488866). In kind it is functional. To be noted: Rattus norvegicus.
Assay [7] addresses 5-hydroxytryptamine receptor 5A (Homo sapiens, UniProt P47898). The assay can be described thus: Counterscreen for agonists of OPRM1-OPRD1 heterodimerization: luminescence-based cell-based high throughput dose response assay to identify agonists of 5-hydroxytryptamine (serotonin) 5A receptor (HTR5A). [Related pubchem assays (depositor defined):AID504326, AID504355, AID504692, AID504904, AID504905]. Type of assay: functional. For orientation: The purpose of a counterscreen is to sort out artefacts and off-target activity.

The target in assay [8] is T2, Voltage-gated N-type calcium channel alpha-1B subunit/Amyloid beta A4 precursor protein-binding family A member 1 (Homo sapiens, UniProt Q00975+Q02410). The assay can be described thus: disruptors of Mint-PDZ/N-type channel peptide interaction – biochemical, HTRF, set 2, SAR follow-up (AID 434980). Type of assay: functional. In general terms: TR-FRET usually uses a lanthanide donor and a delayed reading to cut background.

The target in assay [9] is T2, Voltage-gated N-type calcium channel alpha-1B subunit/Amyloid beta A4 precursor protein-binding family A member 1. In words: disruptors of Mint-PDZ/N-type channel peptide interaction – biochemical, HTRF, SAR follow-up (AID 2489). In kind it is functional.
Another assay addresses SUMO E1/E2 (Homo sapiens, UniProt P63279+Q9UBE0+Q9UBT2). The assay can be described thus: SAR analysis of SUMOylation using HTRF in an in-Vitro dose response assay. [Related pubchem assays (depositor defined):AID2006, AID2011, AID2018, AID2069, AID2658]. In kind it is functional.
For assay [10], the target named is Voltage-gated inwardly rectifying potassium channel KCNH2 (Homo sapiens, UniProt Q12809). The note with it: Potency.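 Also: confirmatory quantitative high-throughput screen measuring inhibition of hERG channel activity.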

Activity calls are given as the source filed them. Where only a bound is given, the exact number is not on record here.

T2 sequence (Q00975 whole entry): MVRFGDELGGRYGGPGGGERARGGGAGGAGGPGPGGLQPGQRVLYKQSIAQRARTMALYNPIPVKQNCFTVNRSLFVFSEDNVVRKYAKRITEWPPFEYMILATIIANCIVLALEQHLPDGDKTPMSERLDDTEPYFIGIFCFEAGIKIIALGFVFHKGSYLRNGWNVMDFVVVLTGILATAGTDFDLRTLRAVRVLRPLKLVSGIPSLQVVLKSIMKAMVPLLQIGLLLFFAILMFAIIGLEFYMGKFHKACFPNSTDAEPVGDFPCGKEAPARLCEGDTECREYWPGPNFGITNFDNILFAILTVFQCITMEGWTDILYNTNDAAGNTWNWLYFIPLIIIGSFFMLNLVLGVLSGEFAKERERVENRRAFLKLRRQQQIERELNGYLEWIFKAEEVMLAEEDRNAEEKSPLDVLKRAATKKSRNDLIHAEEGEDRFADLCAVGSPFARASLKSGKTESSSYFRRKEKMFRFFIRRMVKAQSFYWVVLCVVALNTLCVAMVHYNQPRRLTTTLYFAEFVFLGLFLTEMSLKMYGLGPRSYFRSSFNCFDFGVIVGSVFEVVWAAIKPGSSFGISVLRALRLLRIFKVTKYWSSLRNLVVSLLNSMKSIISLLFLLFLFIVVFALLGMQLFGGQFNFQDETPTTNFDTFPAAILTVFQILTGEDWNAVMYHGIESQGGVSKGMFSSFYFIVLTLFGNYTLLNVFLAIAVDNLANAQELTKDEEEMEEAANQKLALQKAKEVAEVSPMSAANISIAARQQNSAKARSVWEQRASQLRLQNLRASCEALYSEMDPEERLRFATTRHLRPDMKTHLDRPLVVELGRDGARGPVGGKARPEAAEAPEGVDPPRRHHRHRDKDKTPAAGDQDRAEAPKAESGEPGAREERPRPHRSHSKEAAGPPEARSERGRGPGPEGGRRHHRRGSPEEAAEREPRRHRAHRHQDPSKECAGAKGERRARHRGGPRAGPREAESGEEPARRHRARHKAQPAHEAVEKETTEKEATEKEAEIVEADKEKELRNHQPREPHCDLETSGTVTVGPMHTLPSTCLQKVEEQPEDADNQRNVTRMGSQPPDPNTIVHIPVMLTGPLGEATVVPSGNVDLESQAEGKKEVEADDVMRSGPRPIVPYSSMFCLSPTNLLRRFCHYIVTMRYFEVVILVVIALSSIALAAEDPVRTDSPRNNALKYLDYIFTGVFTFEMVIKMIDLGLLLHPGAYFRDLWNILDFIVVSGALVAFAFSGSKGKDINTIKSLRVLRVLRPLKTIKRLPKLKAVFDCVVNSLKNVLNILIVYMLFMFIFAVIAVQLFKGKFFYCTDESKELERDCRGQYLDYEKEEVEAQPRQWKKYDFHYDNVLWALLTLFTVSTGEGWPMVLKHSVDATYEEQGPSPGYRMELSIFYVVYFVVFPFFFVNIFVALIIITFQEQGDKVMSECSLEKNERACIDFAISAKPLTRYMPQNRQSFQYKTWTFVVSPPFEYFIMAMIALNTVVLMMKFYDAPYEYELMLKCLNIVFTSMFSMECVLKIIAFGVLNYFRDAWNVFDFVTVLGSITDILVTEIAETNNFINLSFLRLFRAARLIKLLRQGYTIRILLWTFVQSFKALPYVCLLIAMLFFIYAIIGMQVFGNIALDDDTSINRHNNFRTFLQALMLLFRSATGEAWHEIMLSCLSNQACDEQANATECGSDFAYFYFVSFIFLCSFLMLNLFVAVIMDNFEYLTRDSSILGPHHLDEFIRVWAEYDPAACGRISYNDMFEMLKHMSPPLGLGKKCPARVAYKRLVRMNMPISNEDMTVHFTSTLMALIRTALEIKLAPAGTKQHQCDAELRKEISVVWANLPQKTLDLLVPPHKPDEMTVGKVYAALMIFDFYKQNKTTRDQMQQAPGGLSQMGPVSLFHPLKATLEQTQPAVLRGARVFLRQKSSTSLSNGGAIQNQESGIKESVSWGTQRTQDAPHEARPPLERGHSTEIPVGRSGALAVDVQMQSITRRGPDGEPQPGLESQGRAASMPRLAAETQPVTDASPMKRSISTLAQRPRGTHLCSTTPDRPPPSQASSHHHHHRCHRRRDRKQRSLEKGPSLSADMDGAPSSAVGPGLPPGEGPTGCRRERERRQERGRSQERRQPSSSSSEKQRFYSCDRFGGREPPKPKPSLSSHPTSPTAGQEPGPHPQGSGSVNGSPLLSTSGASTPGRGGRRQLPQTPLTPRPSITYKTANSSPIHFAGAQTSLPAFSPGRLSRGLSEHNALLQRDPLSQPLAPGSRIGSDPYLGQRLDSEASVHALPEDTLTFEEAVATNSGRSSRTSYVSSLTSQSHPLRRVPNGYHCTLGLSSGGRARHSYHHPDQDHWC
T2 sequence (Q02410 whole entry): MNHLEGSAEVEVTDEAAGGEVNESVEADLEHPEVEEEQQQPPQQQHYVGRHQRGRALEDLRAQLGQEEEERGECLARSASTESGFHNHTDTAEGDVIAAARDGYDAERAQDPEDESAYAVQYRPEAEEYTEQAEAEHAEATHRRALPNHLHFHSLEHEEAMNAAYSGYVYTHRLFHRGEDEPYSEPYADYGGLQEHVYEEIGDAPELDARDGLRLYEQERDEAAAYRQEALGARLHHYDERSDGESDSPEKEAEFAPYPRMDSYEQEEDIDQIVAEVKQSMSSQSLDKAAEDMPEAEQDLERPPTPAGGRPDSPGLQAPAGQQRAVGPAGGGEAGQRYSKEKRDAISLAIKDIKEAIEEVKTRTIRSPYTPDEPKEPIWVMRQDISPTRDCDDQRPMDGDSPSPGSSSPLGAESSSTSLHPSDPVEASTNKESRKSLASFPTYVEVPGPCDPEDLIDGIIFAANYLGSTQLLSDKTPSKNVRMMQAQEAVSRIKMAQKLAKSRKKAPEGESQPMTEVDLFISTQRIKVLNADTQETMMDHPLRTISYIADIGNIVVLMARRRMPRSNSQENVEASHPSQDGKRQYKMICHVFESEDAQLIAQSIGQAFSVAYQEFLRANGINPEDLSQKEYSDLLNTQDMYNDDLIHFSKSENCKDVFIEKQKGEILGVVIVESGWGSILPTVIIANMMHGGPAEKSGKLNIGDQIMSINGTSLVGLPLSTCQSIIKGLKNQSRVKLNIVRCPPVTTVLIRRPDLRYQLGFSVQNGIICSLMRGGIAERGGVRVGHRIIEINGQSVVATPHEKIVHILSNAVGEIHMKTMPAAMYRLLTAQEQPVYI
T1 sequence (Q9UBE0 whole entry): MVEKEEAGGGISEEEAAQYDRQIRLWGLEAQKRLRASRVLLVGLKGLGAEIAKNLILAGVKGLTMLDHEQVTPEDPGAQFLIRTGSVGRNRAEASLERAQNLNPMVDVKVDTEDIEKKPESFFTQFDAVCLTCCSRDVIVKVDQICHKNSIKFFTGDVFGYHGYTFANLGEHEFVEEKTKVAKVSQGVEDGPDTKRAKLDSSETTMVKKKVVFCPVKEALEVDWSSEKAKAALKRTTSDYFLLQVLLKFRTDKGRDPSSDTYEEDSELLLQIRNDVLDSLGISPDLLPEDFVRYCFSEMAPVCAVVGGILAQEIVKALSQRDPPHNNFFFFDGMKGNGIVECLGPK
T1 sequence (Q9UBT2 whole entry): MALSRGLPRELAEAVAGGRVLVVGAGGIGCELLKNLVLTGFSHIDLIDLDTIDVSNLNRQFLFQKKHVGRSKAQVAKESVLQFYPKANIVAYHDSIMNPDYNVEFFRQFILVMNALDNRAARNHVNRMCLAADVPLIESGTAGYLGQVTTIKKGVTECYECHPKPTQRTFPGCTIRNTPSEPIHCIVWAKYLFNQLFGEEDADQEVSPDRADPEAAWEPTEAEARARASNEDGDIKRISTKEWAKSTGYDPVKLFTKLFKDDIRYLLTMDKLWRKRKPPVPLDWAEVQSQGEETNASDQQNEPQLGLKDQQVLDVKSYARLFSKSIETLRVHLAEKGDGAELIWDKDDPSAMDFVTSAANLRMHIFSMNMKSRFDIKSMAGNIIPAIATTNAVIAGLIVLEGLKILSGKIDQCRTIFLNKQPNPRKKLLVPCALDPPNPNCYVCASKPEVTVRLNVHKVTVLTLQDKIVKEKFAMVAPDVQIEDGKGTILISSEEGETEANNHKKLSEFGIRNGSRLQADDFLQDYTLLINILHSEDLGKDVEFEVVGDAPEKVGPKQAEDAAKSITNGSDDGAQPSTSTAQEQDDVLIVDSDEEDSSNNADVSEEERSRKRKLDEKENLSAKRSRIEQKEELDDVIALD
Sequence of Induced myeloid leukemia cell differentiation protein Mcl-1 (Q07820 whole entry): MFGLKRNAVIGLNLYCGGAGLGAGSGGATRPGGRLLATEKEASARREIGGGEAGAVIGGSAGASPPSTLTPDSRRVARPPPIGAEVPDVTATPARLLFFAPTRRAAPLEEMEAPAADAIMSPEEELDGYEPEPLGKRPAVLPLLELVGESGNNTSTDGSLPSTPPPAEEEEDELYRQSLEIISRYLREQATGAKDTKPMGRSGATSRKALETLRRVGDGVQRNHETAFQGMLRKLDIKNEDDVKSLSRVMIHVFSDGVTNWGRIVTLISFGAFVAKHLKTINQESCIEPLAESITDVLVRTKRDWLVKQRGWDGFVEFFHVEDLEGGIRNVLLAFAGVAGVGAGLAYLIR
Sequence of SUMO E1/E2 (Q9UBE0 whole entry): as the sequence (Q9UBE0 whole entry) above
Sequence of SUMO E1/E2 (Q9UBT2 whole entry): as the sequence (Q9UBT2 whole entry) above
Sequence of SUMO E1/E2 (P63279 whole entry): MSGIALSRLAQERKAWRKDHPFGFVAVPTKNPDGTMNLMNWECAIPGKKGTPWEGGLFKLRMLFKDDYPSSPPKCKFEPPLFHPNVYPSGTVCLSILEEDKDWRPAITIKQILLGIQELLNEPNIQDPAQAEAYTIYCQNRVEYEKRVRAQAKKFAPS

`CCOC(=O)c1ccc(NC(=O)c2cn(CCC#N)nc2-c2ccc3c(c2)OCCO3)cc1`: the concentration at half-maximal activity (AC50) in the assay on Escherichia coli was 30.3 µM (active).
For `COc1cc2c(ccc3cc(OC)c(OC)c(O)c32)cc1O`, the concentration for half-maximal inhibition (IC50) in assay [1] was 1.95 µM (active); at SUMO-activating enzyme [2], 13.9 µM (active); in assay [3] it was 35.2 µM (inactive); at Large T antigen, 9.72 µM (active); at SUMO-activating enzyme [6] it was 2.89 µM (active). Moreover, the figures for the concentration at half-maximal activity (AC50) in assay [4] and in assay [5] were 0.406 µM (active) and 2.19 µM (active), respectively.
In the case of `COc1ccc(S(=O)(=O)N(C)C[C@@H]2Oc3c(NC(=O)Nc4ccccc4-c4ccccc4)cccc3C(=O)N([C@@H](C)CO)C[C@H]2C)cc1`, in the assay with INS1, the half-maximal activity concentration (AC50) is 33.4 µM (active).
With `C=CCN1C[C@@H](C)N(C(c2ccc(C(=O)N(CC)CC)cc2)c2cccc(OC)c2)C[C@@H]1C` (some centres undefined), the EC50 in assay [7] is > 92.5 µM (inactive).
Regarding `Cc1ccccc1CNC(=O)COC(=O)c1cc(-c2ccco2)nc2ccccc12`, the IC50 is 10.9 µM (active) in assay [8], 20.2 µM (active) in [9] and 3.83 µM (active) at SUMO E1/E2.
In the case of `C[N+]1(C)C2CCC1CC(OC(=O)c1c[nH]c3ccccc13)C2` (centres undefined), the half-maximal activity concentration (AC50) in assay [10] was 25.1 µM (inconclusive).

By AC50 is commonly meant the concentration at which the activity in the assay is half-maximal. The IC50 is the concentration needed to halve the response being measured. The term EC50 denotes the midpoint of the concentration-response curve.
